Data on eight compounds can be found in US11065253B2, “Arylquinazolines” (Merck Patent GmbH, priority 2013, dated 2021).

What is called IC50 is the midpoint of a concentration-inhibition curve.

Where two headings read alike, the source gives them in different places.

Assay [1] deals with Kv11.1 (hERG) channel (Homo sapiens (Human), UniProt Q12809). Briefly: Kv11.1 ion channel binding assay (Predictor hERG fluorescence polarisation). The note with it: class symbol marked with asterisk (*). The method, then:
D) Kv11.1 Ion Channel Binding Assay
Kv11.1 (hERG=human ether a go-go related […]) is a cardiac K^+ channel which should if possible not interact with the test substances. This interaction is determined quantitatively with the aid of the Predictor™ hERG Fluorescence Polarizations (FP) Assays from Life Technologies. In the case of this assay principle, cardiomyocyte cell membranes having a certain proportion of Kv11.1 channels are isolated. A dye-labelled Kv11.1 binding partner gives a high fluorescence polarisation signal by interaction with the Kv11.1. In the case of displacement of the dye, a reduction in the fluorescence polarisation signal occurs.
The assay is carried out automatically as follows: 15 nl of the test substances (highest concentration: 10 mM, 10 concentrations: dilution factors 1:3.16, DMSO) are transferred into an empty microtitre plates having 384 wells by means of an acoustic pipetter. 3 μl of the isolated membranes are subsequently added. Membranes and test substances are incubated at 22° C. for 15 min (+/−5 min). In the next step, the dye-labelled binding partner is added, followed by incubation at 22° C. After incubation for two hours, the measurement of the fluorescence polarisation is carried out on an Envision multimode Reader. Measured raw data are standardised with the aid of Genedata Assay Analyzer. The IC50 and % effect values are calculated in Genedata Condoseo.

In assay [2] the test system is phospho-serine 2056 DNA-PK in HCT116 cells. Nature of the assay: DNA-PK phosphorylation at serine 2056 (cellular), ELISA in bleomycin-treated HCT116 cells. It is filed as cell-based. The note with it: bleomycin-treated HCT116 cells, read-out: IC50 pDNA-PK. The procedure, abridged:
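Test compounds and bleomycin (10 μM) are added to adherent HCT116 cells for 6 h. Detection uses an HRP-based chemiluminescent ELISA, with phospho-DNA-PK signals standardised to total protein.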

The mark [3] stands for this setting: Homo sapiens, HCT-116, phospho-serine 2056 DNA-PK.

Sequence of Kv11.1 (hERG) channel (Q12809 whole entry): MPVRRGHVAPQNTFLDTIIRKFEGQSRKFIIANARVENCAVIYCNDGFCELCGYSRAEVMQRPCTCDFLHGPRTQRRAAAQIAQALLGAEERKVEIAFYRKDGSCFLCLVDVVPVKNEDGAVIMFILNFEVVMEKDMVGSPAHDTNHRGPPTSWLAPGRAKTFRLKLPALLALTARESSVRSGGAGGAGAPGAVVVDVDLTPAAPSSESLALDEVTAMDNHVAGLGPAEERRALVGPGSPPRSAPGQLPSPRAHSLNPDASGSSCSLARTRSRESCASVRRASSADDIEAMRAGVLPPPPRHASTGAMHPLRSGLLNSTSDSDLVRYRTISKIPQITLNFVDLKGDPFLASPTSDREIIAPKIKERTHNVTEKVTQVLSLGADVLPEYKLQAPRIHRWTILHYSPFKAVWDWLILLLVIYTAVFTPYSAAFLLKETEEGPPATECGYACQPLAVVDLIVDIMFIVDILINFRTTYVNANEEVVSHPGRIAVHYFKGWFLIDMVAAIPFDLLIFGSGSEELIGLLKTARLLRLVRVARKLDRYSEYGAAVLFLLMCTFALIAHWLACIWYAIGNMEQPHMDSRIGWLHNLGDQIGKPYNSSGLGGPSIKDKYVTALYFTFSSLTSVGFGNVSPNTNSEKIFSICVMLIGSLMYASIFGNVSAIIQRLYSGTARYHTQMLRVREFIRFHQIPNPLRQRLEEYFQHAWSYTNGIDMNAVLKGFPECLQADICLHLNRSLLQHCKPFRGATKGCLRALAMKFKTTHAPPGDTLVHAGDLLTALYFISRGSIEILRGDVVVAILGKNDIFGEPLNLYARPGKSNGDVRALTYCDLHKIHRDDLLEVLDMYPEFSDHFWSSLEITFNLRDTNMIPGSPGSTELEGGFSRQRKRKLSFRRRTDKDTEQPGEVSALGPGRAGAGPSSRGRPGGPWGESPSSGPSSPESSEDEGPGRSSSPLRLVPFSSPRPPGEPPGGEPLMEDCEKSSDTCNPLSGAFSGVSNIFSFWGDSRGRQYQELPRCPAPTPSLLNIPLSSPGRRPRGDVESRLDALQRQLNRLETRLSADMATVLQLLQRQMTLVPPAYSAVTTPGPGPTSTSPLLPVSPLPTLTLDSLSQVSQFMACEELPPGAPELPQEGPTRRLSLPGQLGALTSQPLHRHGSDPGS

In the case of `OC(c1ccc(F)c(-c2ncnc3cc(N4CCOCC4)ccc23)c1)c1nccn2ncnc12` (stereo not shown) [Example 279, [4-Fluoro-3-(7-morpholin-4-yl-quinazolin-4-yl)-phenyl]-[1,2,4]-triazolo[1,5-a]-pyrazin-8-ylmethanol], the “Ki [Kv1.11 hERG]” value in assay [1] is reported as “A*”. Further, the IC50 in assay [2] (setting [3]) lay in the range of 5 to 10 µM.

On to `[2H]C1([2H])OC([2H])([2H])C([2H])([2H])N(c2ccc3c(-c4cc(C(O)c5nccnc5C)ccc4F)ncnc3c2)C1([2H])[2H]` (stereo not shown) [Example 259, [4-Fluoro-3-[7-(2,2,3,3,5,5,6,6-octadeuterio-morpholin-4-yl)quinazolin-4-yl]phenyl]-(3-methyl-pyrazin-2-yl)-methanol], for which, in assay [1], the “Ki [Kv1.11 hERG]” value is reported as “A*”. The IC50 in assay [2] (phospho-serine 2056 DNA-PK) is under 0.5 µM.

As for `CNC(=O)C(c1ccc2nccn2n1)c1cc(-c2ncnc3cc(N4CCOCC4)ccc23)c(F)cc1Cl` (stereo not shown) [Example 236, 2-[2-Chloro-4-fluoro-5-(7-morpholin-4-yl-quinazolin-4-yl)-phenyl]-2-imidazo-[1,2-b]pyridazin-6-yl-N-methylacetamide], in assay [1], the “Ki [Kv1.11 hERG]” value is “A*”. Also, the IC50 in assay [2] (setting [3]) was in the range of 5 to 10 µM.

Consider `COc1nccnc1C(O)c1cc(-c2ncnc3cc(N4CCOCC4)cc(F)c23)c(F)cc1Cl` (stereo not shown) [Example 266, [2-Chloro-4-fluoro-5-(5-fluoro-7-morpholin-4-yl-quinazolin-4-yl)-phenyl]-(3-methoxy-pyrazin-2-yl)-methanol], for which the “Ki [Kv1.11 hERG]” value in assay [1] is on record as “A*”. Moreover, the IC50 in assay [2] (phospho-serine 2056 DNA-PK) is under 0.5 µM.

Take `[2H]C1([2H])OC([2H])([2H])C([2H])([2H])N(c2ccc3c(-c4cc(C(O)c5ccc(OC)nn5)c(Cl)cc4F)ncnc3c2)C1([2H])[2H]` (stereo not shown) [Example 262, [2-Chloro-4-fluoro-5-[7-(2,2,3,3,5,5,6,6-octadeuterio-morpholin-4-yl)quinazolin-4-yl]phenyl]-(6-methoxypyridazin-3-yl)methanol]: the “Ki [Kv1.11 hERG]” value in assay [1] is “A*”. Further, in assay [2] (phospho-serine 2056 DNA-PK), the IC50 is under 0.5 µM.

On to `COc1ccc(C(O)c2cc(-c3ncnc4cc(N5CCOCC5)cc(F)c34)c(F)cc2Cl)nn1` (stereo not shown) [Example 278, [2-chloro-4-fluoro-5-(5-fluoro-7-morpholin-4-ylquinazolin-4-yl)phenyl]-(6-methoxypyridazin-3-yl)methanol], for which the “Ki [Kv1.11 hERG]” value in assay [1] is listed as “A*”. In addition, the IC50 in assay [2] (phospho-serine 2056 DNA-PK) is under 0.5 µM.

Turning to `COc1nccnc1C(O)c1ccc(F)c(-c2ncnc3cc(N4CCOCC4)cc(F)c23)c1` (stereo not shown) [Example 267, [4-Fluoro-3-(5-fluoro-7-morpholin-4-yl-quinazolin-4-yl)-phenyl]-(3-methoxy-pyrazin-2-yl)-methanol], the “Ki [Kv1.11 hERG]” value in assay [1] is given as “A*”. In addition, the IC50 in assay [2] (phospho-serine 2056 DNA-PK) is under 0.5 µM.

Consider `COc1nnc(Cl)cc1C(O)c1ccc(F)c(-c2ncnc3cc(N4CCOCC4)ccc23)c1` (stereo not shown) [Example 286, (6-Chloro-3-methoxy-pyridazin-4-yl)-[4-fluoro-3-(7-morpholin-4-yl-quinazolin-4-yl)-phenyl]methanol (Ena 1)], for which the “Ki [Kv1.11 hERG]” value in assay [1] is “A*”. Also, in assay [2] (setting [3]), the IC50 lay within 5 to 10 µM.
